Experiments:
[1] = Association between model-derived AUC and pharmacodynamic biomarkers; format: in vivo, human
[2] = Population pharmacokinetic model
[3] = final population PK model, combined dataset

CC(C)CN(C[C@@H](O)[C@H](Cc1ccccc1)NC(=O)O[C@H]1CO[C@H]2OCC[C@H]21)S(=O)(=O)c1ccc(N)cc1 [Darunavir]
correlation between AUC and CD4 lymphocyte count ([1]; Spearman, p = 0.3): no apparent correlation | correlation between AUC and occurrence of CNS adverse events ([1]; any point during follow-up, W = 1613.5, p = 0.42): no apparent correlation | correlation between AUC and occurrence of lipodystrophy ([1]; any point during follow-up, W = 1687, p = 0.97): no apparent correlation | correlation between AUC and viral load ([1]; viral load > 40 or < 40 copies/mL, Wilcoxon W = 582, p = 0.45): no apparent correlation | CL higher in CYP3A5 expressors compared with non-expressors ([2]; combined dataset): 19% | CL lower in female compared with male individuals ([2]; combined dataset): 21% | σadditive (SD), residual variability ([2]; final model): 0.641 | σexponential (SD), residual variability ([2]; final model): 0.281 | SLCO3A1 G > T on V (covariate scale factor) ([2]; final model, rs8027174): 0.81 | ωCL (SD), inter-individual variability of CL [2, 3]: 0.22 | ωV (SD), inter-individual variability of V [2, 3]: 0.33 | ωka (SD), inter-individual variability of ka [2, 3]: 0.60 | ka (absorption rate constant), estimate ([2]; final population PK model, combined dataset, typical value): 0.68 h⁻¹

Source: paper PMC7862523 (Clinical Pharmacokinetics, 2020)
